The test system of assay [1] is PBQ-induced writhing in mice. In words: PBQ-Writhing assay. The note with it: male mice, subcutaneous, ED50 from number of animals protected compared to saline controls. Type of assay: in vivo. As for the experimental part:
PBQ-Writhing assay. Groups of 10 male mice weighing 20 to 35 grams are used for each dose and for the vehicle control. Writhing is induced 30 or 60 minutes following drug or drug vehicle administration by the intraperitoneal injection of a 0.025 percent solution of PBQ and 5 percent ethanol. The number of separate writhing motions occurring in a ten minute period starting 5 minutes following the PBQ challenge is counted for each mouse. A positive antinociceptive affect is assured when an individual animals' writhing frequency is less than or equal to 50 percent of the vehicle control group median frequency. ED50 values based on the number of positive responders per dose group is determined using the method of Litchfield and Wilcoxon. M. R. Fennessy et al. The Assessment of and Problems Involved in the Experimental Evaluation of Narcotic Analgesics. In Methods in Narcotics Research, Marcel Dekker, Inc., New York, 1975. H. Bomberg et al. Use of Writhing Test for Evaluating Analgesic Activity of Narcotic Analgesics, Proc. Soc. Ext. Biol. Med. 118: 763-766, 1965.
The compounds of the invention were evaluated with respect to analgesic activity utilizing the test procedures described previously. Set forth in Table I below are the test results in the writhing assay for certain preferred compounds of the invention within formula I. The data summarized represents the ED50 calculated on the basis of the number of animals protected at a dose of 10 mg/Kg of the active test compound compared to saline controls.

Assay [2] deals with brain opiate receptor sites. The note with it: partially purified brain opiate receptor sites; cited from earlier work.
Assay [3] concerns opiate activity. The note with it: cited from earlier work.
Assay [4] relates to rat. The note with it: injected directly into the brain of the rat; cited from earlier work.

The text below walks through data of US4603121A, “Enkephalin analogs” (G. D. Searle & Co., priority 1984, dated 1986).

For “2,6-dimethyltyrosyl-D-norleucylglycyl-3-cyclohexyl-N-(6-methoxy-6-oxohexyl)-L-alaninamide, monohydrochloride(diastereomer-D) [Example 104]”, in assay [1], the “Activity (ED50 mg/Kg - Administered Subcutaneously)” value is 0.20 mg/kg.
For the compound `COC(=O)CCCCCNC(=O)[C@H](CC1CCCCC1)N(C)C(=O)CNC(=O)[C@@H](CCSC)NC(=O)[C@@H](N)Cc1c(C)cc(O)cc1C.Cl` [Example 43, 2,6-dimethyl-L-tyrosyl-D-methionylglycyl-N-(6-methoxy-6-oxohexyl)-3-cyclohexyl-N^α -methyl-L-alaninamide monohydrochloride], in assay [1], the “Activity (ED50 mg/Kg - Administered Subcutaneously)” value worked out at 0.20 mg/kg.
In the case of `CSCC[C@@H](NC(=O)[C@@H](N)Cc1c(C)cc(O)cc1C)C(=O)NCC(=O)N[C@@H](CC1CCCCC1)C(=O)NCCCCCC(=O)O.Cl` [Example 127, 2,6-dimethyl-L-tyrosyl-D-methionylglycyl-N-(5-carboxypentyl)-3-cyclohexyl-L-alaninamide, monohydrochloride], the “Activity (ED50 mg/Kg - Administered Subcutaneously)” value in assay [1] is 0.09 mg/kg.
methionine enkephalin: the “binding to opiate receptor sites” value in assay [2] is “binds stereospecifically”. In addition, in assay [3], the “activity in bioassays for opiate activity” value was “highly active”. Further, the analgesic activity result in assay [4] is given as “weak, fleeting analgesic activity”.
